Laboratory results: BindingDB's records for doi:10.1073/pnas.97.2.925 (Vanderbilt University School of Medicine, 2000)

Tests used:
[1] = target: T1, Prostaglandin G/H synthase 2 (Homo sapiens, UniProt P35354)
T1 sequence (P35354 whole entry): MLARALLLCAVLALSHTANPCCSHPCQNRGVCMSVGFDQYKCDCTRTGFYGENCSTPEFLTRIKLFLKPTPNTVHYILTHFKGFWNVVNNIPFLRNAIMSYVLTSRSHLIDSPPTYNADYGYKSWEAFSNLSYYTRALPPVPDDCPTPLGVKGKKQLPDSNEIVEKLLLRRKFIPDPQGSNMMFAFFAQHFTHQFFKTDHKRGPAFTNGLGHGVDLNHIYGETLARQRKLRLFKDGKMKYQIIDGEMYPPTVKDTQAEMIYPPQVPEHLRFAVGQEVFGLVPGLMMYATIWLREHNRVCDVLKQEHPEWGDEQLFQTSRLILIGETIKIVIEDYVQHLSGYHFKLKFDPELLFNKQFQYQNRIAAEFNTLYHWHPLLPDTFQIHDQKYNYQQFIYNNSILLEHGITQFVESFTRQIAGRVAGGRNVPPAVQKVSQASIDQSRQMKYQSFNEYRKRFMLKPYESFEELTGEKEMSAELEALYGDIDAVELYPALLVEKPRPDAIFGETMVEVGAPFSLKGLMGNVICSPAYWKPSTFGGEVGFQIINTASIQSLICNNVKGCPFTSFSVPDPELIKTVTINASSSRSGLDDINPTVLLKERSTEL

[2] = target: T2, Prostaglandin G/H synthase 1 (Ovis aries, UniProt P05979)
T2 sequence (P05979 whole entry): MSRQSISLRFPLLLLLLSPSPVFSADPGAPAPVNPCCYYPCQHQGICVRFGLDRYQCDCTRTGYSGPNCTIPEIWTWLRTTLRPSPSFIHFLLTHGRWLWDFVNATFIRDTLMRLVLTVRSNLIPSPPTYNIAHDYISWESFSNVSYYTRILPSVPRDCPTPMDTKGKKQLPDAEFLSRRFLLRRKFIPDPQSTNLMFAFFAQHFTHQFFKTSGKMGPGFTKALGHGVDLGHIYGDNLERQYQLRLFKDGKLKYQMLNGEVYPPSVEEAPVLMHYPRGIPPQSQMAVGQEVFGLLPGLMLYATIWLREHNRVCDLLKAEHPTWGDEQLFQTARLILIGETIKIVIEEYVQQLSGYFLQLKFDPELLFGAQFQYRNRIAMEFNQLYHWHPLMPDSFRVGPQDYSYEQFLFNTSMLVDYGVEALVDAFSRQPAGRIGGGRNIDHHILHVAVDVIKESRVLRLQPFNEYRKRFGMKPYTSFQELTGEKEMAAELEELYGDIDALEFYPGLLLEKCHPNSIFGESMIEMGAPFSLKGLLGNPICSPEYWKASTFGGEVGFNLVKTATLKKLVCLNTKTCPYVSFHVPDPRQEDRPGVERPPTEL

Molecule `Cc1ccc(Cl)c(Nc2ccccc2C(=O)NCC(=O)O)c1Cl` [2-({2-[(2,6-dichloro-3-methylphenyl)amino]phenyl}formamido)acetic acid] has an IC50 [1] of 400 nM and an IC50 [2] of 300 nM.
